pIC50: −log10 of the molar value. Counter-ions that a name gives are not always drawn.

This test has as its target T1, Cloned Neurokinin Receptor Subtype 2 Human (Homo sapiens, UniProt P21452).
T1 construct: purchased Biosignal Packard; host or cells: CHO cells
T1 sequence (P21452 1-398): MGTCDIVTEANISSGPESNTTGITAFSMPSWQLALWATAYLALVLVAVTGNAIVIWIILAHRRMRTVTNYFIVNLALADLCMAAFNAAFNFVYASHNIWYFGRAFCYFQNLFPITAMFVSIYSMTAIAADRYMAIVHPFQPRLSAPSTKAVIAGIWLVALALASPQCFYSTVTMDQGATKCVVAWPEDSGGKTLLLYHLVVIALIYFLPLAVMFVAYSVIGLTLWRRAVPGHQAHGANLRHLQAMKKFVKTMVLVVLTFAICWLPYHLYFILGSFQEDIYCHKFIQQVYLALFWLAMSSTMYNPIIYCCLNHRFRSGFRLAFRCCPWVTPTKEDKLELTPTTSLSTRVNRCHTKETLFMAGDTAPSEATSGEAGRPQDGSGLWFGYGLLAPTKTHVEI
Put plainly: NK-2 receptor-binding experiment ([3H]-SR48968, CHO cell membranes). The following applies: Table 3; inhibition of [3H]-SR48968 (0.85 nM) binding, pseudo-Hill analysis. The procedure:
2. NK-2 Receptor-binding Experiment
Cloned Neurokinin Receptor Subtype 2 Human (CHO cells, Biosignal Packard), [^3H]-SR48968 (Amersham, final concentration 0.85 nM), and a test compound were mixed with 20 mM HEPES buffer, and the mixture was incubated for 50 minutes at 27° C. After completion of incubation, membrane components were collected by means of an automatic filtration apparatus (Brandel) onto a GF/C glass fiber filter (Whatman).
Before use, in order to prevent non-specific binding, the glass fiber filter had been pre-treated with 0.1% polyethylene imine solution for about 4 hours.
The filter employed to collect the membrane components was transferred to a plastic vial containing UltimaGold MV (5 mL), and measured by means of a liquid scintillation counter (Packard, 2000CA) in terms of the radioactivity.
Percent radioactive ligand-receptor binding inhibition of each test compound was calculated by use of the following equation, and IC50 (nM) was determined through pseudo-Hill analysis.
Percent inhibition (%)=[1−(C−A)/(B−A)]×100
A: Radioactivity attributed to non-specific binding
B: Radioactivity without test compound
C: Radioactivity with test compound
In the case of `CC(C)C(=O)N(C)C[C@](CCN1CCC2(CC1)c1ccccc1C[S@+]2[O-])(c1ccc(Cl)c(Cl)c1)N(C)C(=O)C(=O)N(C)c1ccccc1` [Compound No. 33, N^1-{1-(N-methylisobutylamide)-2-(S)-(3,4-dichlorophenyl)-4-[spiro(benzo(c)thiophene-(2S)-oxido-1(3H), 41-piperidin)-1′-yl]butan-2-yl}-N^1,N^2-dimethyl-N^2-phenyloxalamide hydrochloride], the pIC50 (as a rule, the IC50 on a negative log10 scale, so that one unit is a factor of ten) was 9.19. As for `CCC(=O)N(C)C[C@](CCN1CCC2(CC1)c1ccccc1C[S@+]2[O-])(c1ccc(Cl)c(Cl)c1)N(C)C(=O)c1ccccc1` [Compound No. 34, N-{1-(N-methyl-propionamide)-2-(S)-(3,4-dichlorophenyl)-4-[spiro(benzo(c)thiophene-(2S)-oxido-1(3H),4′-piperidin)-1′-yl]butan-2-yl}-N-methylbenzamide hydrochloride], the pIC50 is 9.02. As for `CCC(=O)N(C)C[C@](CCN1CCC2(CC1)c1ccccc1C[S@+]2[O-])(c1ccc(Cl)c(Cl)c1)N(C)C(=O)C(=O)N(C)c1ccccc1` [Compound No. 35, N^1-{1-(N-methyl-propionamide)-2-(S)-(3,4-dichlorophenyl)-4-[spiro(benzo(c)thiophene-(2S)-oxido-1(3H),4′-piperidin)-1′-yl]butan-2-yl}-N^1,N^2-dimethyl-N^2-phenyloxalamide hydrochloride], the figure is 8.34. For the compound `CC(=O)N(C)C[C@](CCN1CCC2(CC1)NC(=O)Cc1ccccc12)(c1ccc(Cl)c(Cl)c1)N(C)C(=O)c1ccccc1` [Compound No. 36, N-{1-(N-methyl-acetamide)-2-(S)-(3,4-dichlorophenyl)-4-[3-oxo-3,4-dihydro-2H-spiro(isoquinoline-1,4′-piperidin)-1′-yl]butan-2-yl}-N-methylbenzamide hydrochloride], the pIC50 is 9.07. `CCN(C(=O)C(=O)N(C)[C@](CCN1CCC2(CC1)c1ccccc1C[S@+]2[O-])(CN(C)C(=O)C(C)(C)C)c1ccc(Cl)c(Cl)c1)c1ccccc1` [Compound No. 37, N^1-{[1-(N-methyl-trimethylacetamide)-2-(S)-(3,4-dichlorophenyl)-4-[spiro(benzo(c)thiophene-(2S)-oxido-1(3H),4′-piperidin)-1′-yl]butan-2-yl}-N^1-methyl-N^2-ethyl-N^2-phenyloxalamide hydrochloride] gave a pIC50 of 8.74. `CCN(C(=O)C(=O)N(C)[C@](CCN1CCC2(CC1)NC(=O)Cc1ccccc12)(CN(C)C(=O)C(C)(C)C)c1ccc(Cl)c(Cl)c1)c1ccccc1` [Compound No. 38, N^1-{1-(N-methyl-trimethylacetamide)-2-(S)-(3,4-dichlorophenyl)-4-[3-oxo-3,4-dihydro-2H-spiro(isoquinoline-1,4′-piperidin)-1′-yl]butan-2-yl}-N^1-methyl-N^2-ethyl-N^2-phenyloxalamide hydrochloride] showed a negative-log IC50 (pIC50) of 8.72. `CCN(C(=O)C(=O)N(C)[C@](CCN1CCC2(CC1)c1ccccc1C[S@+]2[O-])(CN(C)C(=O)C(C)C)c1ccc(Cl)c(Cl)c1)c1ccccc1` [Compound No. 39, N^1-{1-(N-methylisobutylamide)-2-(S)-(3,4-dichlorophenyl)-4-[spiro(benzo(c)thiophene-(2S)-oxido-1(3H),4′-piperidin)-1′-yl]butan-2-yl}-N^1-methyl-N^2-ethyl-N^2-phenyloxalamide hydrochloride]: the pIC50 was 9.00.

With `CCN(C(=O)C(=O)N(C)[C@](CCN1CCC2(CC1)NC(=O)Cc1ccccc12)(CN(C)C(=O)C(C)C)c1ccc(Cl)c(Cl)c1)c1ccccc1` [Compound No. 40, N^1-{1-(N-methylisobutylamide)-2-(S)-(3,4-dichlorophenyl)-4-[3-oxo-3,4-dihydro-2H-spiro(isoquinoline-1,4′-piperidin)-1′-yl]butan-2-yl}-N^1-methyl-N^2-ethyl-N^2-phenyloxalamide hydrochloride], the pIC50 was 9.14.
